According to ChEMBL document CHEMBL1201862, “PubChem BioAssay data set” (2004):
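The compound was tested at five concentrations on cells cultured in 96-well plates, with a 48-hour exposure period. GI50: concentration for 50% inhibition of growth.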 Active and inactive are the calls of the source. Rule as the data show it: active = GI50 up to about 1.1 µM and inactive = higher.

Assays:
Assay in all cases: NCI anticancer screen, dose series, 48 h
CAKI-1 = test system: CAKI-1
EKVX = test system: EKVX
HCT-116 = test system: HCT-116
HL-60 = test system: HL-60
K562 = test system: K562
MCF7 = test system: MCF7
MOLT-4 = test system: MOLT-4
NCI-H460 = test system: NCI-H460
OVCAR-3 = test system: OVCAR-3
OVCAR-4 = test system: OVCAR-4
PC-3 = test system: PC-3
RPMI-8226 = test system: RPMI-8226
RXF 393 = test system: RXF 393
SF-539 = test system: SF-539
SK-MEL-2 = test system: SK-MEL-2
TK-10 = test system: TK-10
UACC-257 = test system: UACC-257
UACC-62 = test system: UACC-62
DU-145 = test system: DU-145

COC(=O)C(=O)C(C(=O)C(=O)Nc1ccccc1C(C)=O)c1nc2ccc(C(=O)c3ccccc3)cc2nc1O (stereo not given)
GI50 (CAKI-1): 25.9 µM (inactive) | GI50 (EKVX): 92.5 µM (inactive) | GI50 (HCT-116): > 100 µM (inactive) | GI50 (HL-60): > 100 µM (inactive) | GI50 (K562): 39.4 µM (inactive) | GI50 (MCF7): 19.4 µM (inactive) | GI50 (MOLT-4): 56.2 µM (inactive) | GI50 (NCI-H460): 58.9 µM (inactive) | GI50 (OVCAR-3): 73.6 µM (inactive) | GI50 (OVCAR-4): > 100 µM (inactive) | GI50 (PC-3): 44 µM (inactive) | GI50 (RPMI-8226): 63.1 µM (inactive) | GI50 (RXF 393): 51.5 µM (inactive) | GI50 (SF-539): 76.7 µM (inactive) | GI50 (SK-MEL-2): > 100 µM (inactive) | GI50 (TK-10): > 100 µM (inactive) | GI50 (UACC-257): > 100 µM (inactive) | GI50 (UACC-62): > 100 µM (inactive)

O=C1c2cccnc2S(=O)(=O)N1c1ccc(Br)cc1
GI50 (CAKI-1): > 100 µM (inactive) | GI50 (DU-145): > 100 µM (inactive) | GI50 (EKVX): > 100 µM (inactive) | GI50 (HCT-116): > 100 µM (inactive) | GI50 (HL-60): < 0.01 µM (active) | GI50 (K562): 41.6 µM (inactive) | GI50 (MOLT-4): > 100 µM (inactive) | GI50 (OVCAR-3): > 100 µM (inactive) | GI50 (OVCAR-4): > 100 µM (inactive) | GI50 (PC-3): 72.4 µM (inactive) | GI50 (RPMI-8226): 91.6 µM (inactive) | GI50 (RXF 393): > 100 µM (inactive) | GI50 (SK-MEL-2): > 100 µM (inactive) | GI50 (TK-10): > 100 µM (inactive) | GI50 (UACC-257): > 100 µM (inactive) | GI50 (UACC-62): > 100 µM (inactive)

CCCCCCCCCCCCNC(=O)NCC(OCC)OCC
GI50 (CAKI-1): > 10 µM (inactive) | GI50 (DU-145): > 10 µM (inactive) | GI50 (EKVX): > 10 µM (inactive) | GI50 (HCT-116): > 10 µM (inactive) | GI50 (K562): > 10 µM (inactive) | GI50 (MCF7): > 10 µM (inactive) | GI50 (MOLT-4): > 10 µM (inactive) | GI50 (NCI-H460): > 10 µM (inactive) | GI50 (OVCAR-4): > 10 µM (inactive) | GI50 (PC-3): > 10 µM (inactive) | GI50 (RPMI-8226): > 10 µM (inactive) | GI50 (RXF 393): > 10 µM (inactive) | GI50 (SF-539): > 10 µM (inactive) | GI50 (SK-MEL-2): > 10 µM (inactive) | GI50 (TK-10): > 10 µM (inactive) | GI50 (UACC-257): > 10 µM (inactive) | GI50 (UACC-62): > 10 µM (inactive)

Cc1cc2nc(C#N)c(N3CCN(c4ccc([N+](=O)[O-])cc4)CC3)nc2cc1C
GI50 (CAKI-1): > 70 µM (inactive) | GI50 (DU-145): > 100 µM (inactive) | GI50 (EKVX): > 100 µM (inactive) | GI50 (HCT-116): > 68.4 µM (inactive) | GI50 (K562): > 100 µM (inactive) | GI50 (MCF7): > 72.8 µM (inactive) | GI50 (NCI-H460): > 85.9 µM (inactive) | GI50 (OVCAR-3): > 100 µM (inactive) | GI50 (OVCAR-4): 73.6 µM (inactive) | GI50 (PC-3): > 100 µM (inactive) | GI50 (RPMI-8226): > 57.3 µM (inactive) | GI50 (RXF 393): > 72.9 µM (inactive) | GI50 (SF-539): 26.1 µM (inactive) | GI50 (SK-MEL-2): > 100 µM (inactive) | GI50 (TK-10): > 66.5 µM (inactive) | GI50 (UACC-257): > 100 µM (inactive) | GI50 (UACC-62): > 79.1 µM (inactive)

CC(C)CC1N=C(OCc2ccccc2)OC1=O (stereo not given)
GI50 (CAKI-1): > 100 µM (inactive) | GI50 (DU-145): > 100 µM (inactive) | GI50 (EKVX): > 100 µM (inactive) | GI50 (HCT-116): > 100 µM (inactive) | GI50 (K562): > 100 µM (inactive) | GI50 (MCF7): > 100 µM (inactive) | GI50 (MOLT-4): > 100 µM (inactive) | GI50 (NCI-H460): > 100 µM (inactive) | GI50 (OVCAR-3): > 100 µM (inactive) | GI50 (OVCAR-4): > 100 µM (inactive) | GI50 (PC-3): > 100 µM (inactive) | GI50 (RPMI-8226): > 100 µM (inactive) | GI50 (RXF 393): > 100 µM (inactive) | GI50 (SF-539): > 100 µM (inactive) | GI50 (SK-MEL-2): > 100 µM (inactive) | GI50 (TK-10): > 100 µM (inactive) | GI50 (UACC-257): > 100 µM (inactive)

S=C(N1CCN(c2ccc(Cl)c(Cl)c2)CC1)N1CCN(c2ccc(Cl)c(Cl)c2)CC1
GI50 (CAKI-1): 7.4 µM (inactive) | GI50 (DU-145): 12.4 µM (inactive) | GI50 (EKVX): 3.38 µM (inactive) | GI50 (HCT-116): 7.19 µM (inactive) | GI50 (K562): 12.2 µM (inactive) | GI50 (MCF7): 11.7 µM (inactive) | GI50 (MOLT-4): 6.18 µM (inactive) | GI50 (OVCAR-3): 13.5 µM (inactive) | GI50 (OVCAR-4): 13.7 µM (inactive) | GI50 (PC-3): 12.7 µM (inactive) | GI50 (RPMI-8226): 18 µM (inactive) | GI50 (RXF 393): 14.3 µM (inactive) | GI50 (SK-MEL-2): 19.9 µM (inactive) | GI50 (TK-10): 13.4 µM (inactive) | GI50 (UACC-257): 17.1 µM (inactive) | GI50 (UACC-62): 15.5 µM (inactive)

O=c1c2cc(Br)ccc2nc(-c2ccccc2Cl)n1NCC1(O)OCC(O)C(O)C1O (stereo not given)
GI50 (CAKI-1): > 100 µM (inactive) | GI50 (EKVX): > 100 µM (inactive) | GI50 (HCT-116): > 100 µM (inactive) | GI50 (HL-60): 33.6 µM (inactive) | GI50 (K562): > 100 µM (inactive) | GI50 (MOLT-4): 57.1 µM (inactive) | GI50 (NCI-H460): > 100 µM (inactive) | GI50 (OVCAR-3): 76.2 µM (inactive) | GI50 (OVCAR-4): 60.7 µM (inactive) | GI50 (RPMI-8226): 99.1 µM (inactive) | GI50 (RXF 393): > 100 µM (inactive) | GI50 (SK-MEL-2): > 100 µM (inactive) | GI50 (UACC-257): > 100 µM (inactive) | GI50 (UACC-62): > 100 µM (inactive)

Cc1cccc(N2C(=O)C(=O)C(c3nc4ccccc4s3)/C(=N/NC(=S)NN)C2=O)c1C (stereo not given)
GI50 (CAKI-1): > 100 µM (inactive) | GI50 (EKVX): > 100 µM (inactive) | GI50 (HCT-116): > 100 µM (inactive) | GI50 (K562): > 100 µM (inactive) | GI50 (MOLT-4): 90.6 µM (inactive) | GI50 (NCI-H460): > 100 µM (inactive) | GI50 (OVCAR-3): > 100 µM (inactive) | GI50 (OVCAR-4): > 100 µM (inactive) | GI50 (RPMI-8226): > 100 µM (inactive) | GI50 (RXF 393): > 100 µM (inactive) | GI50 (SF-539): > 100 µM (inactive) | GI50 (SK-MEL-2): > 100 µM (inactive) | GI50 (TK-10): > 100 µM (inactive) | GI50 (UACC-257): > 100 µM (inactive) | GI50 (UACC-62): > 100 µM (inactive)
